# Measured values reported in patent US20160279199A1, “PHARMACEUTICAL COMPOSITION FOR TREATING A METABOLIC SYNDROME” (Sanofi, priority 2010, published 2016).
# No end group written: not given here.
# How the values were obtained:
# db/db mice [1] = test: Fed blood glucose during treatment of db/db mice; format: in vivo, mouse; details: s.c. once daily (AVE0010 0.05, FGF-21 0.75, combination 0.75+0.05 mg·kg−1·day−1), up to 4 weeks, FIG. 6
# Protocol: (§1) Female db/db mice (BKS.Cg-m +/+ Leprdb/J, age of 6 weeks) were treated with vehicle (PBS), 0.05 mg·kg^−1·day^−1 AVE0010, 0.75 mg·kg^−1·day^−1 recombinant human FGF-21 (SEQ ID NO: 2) or a combined dose of FGF-21 (SEQ ID NO: 2) and AVE0010 (SEQ ID NO:9), (0.75+0.05 mg·kg^−1·day^−1) subcutaneously once daily. Mice were fed ad libitum. Before the first treatment, after one week and 4 weeks blood glucose and HbA1c were measured under fed conditions. After 21 days of treatment an oral glucose tolerance test (OGTT) was initiated. Fasted mice were orally challenged with 2 g·kg^−1 glucose solution and blood glucose was measured at indicated time points.
# db/db mice [2] = test: Oral glucose tolerance test (OGTT) in treated db/db mice; format: in vivo, mouse; details: after 21 days s.c. once daily (AVE0010 0.05, FGF-21 0.75, combination 0.75+0.05 mg·kg−1·day−1), fasted, 2 g·kg−1 oral glucose, vs vehicle treated obese control, FIG. 5
# Protocol: as §1
# Type 2 diabetic patients = details: cited from earlier work; for fasting hyperglycaemia: doses elevating plasma concentrations to approximately 3-4 fold physiological postprandial levels, Type 2 diabetic patients
# [3] = human subjects with Type 2 diabetes
substance,measurement,setting,value
"AVE0010: GLP-1R agonist peptide, amino acid sequence SEQ ID NO: 9 [reference compound]",blood glucose,db/db mice [1],inhibition of blood glucose increase
same,glucose tolerance (OGTT),db/db mice [2],small improvement in glucose tolerance
"GLP-1(7-27): bioactive GLP-1 form as printed in b13 (HAEGTFTSDVSSYLEGQAAKE; Glucagon-like peptide 1; UniProt P01275 98-118, looked up, fragment)",fasting hyperglycaemia,Type 2 diabetic patients,fully normalizes
"GLP-1(7-36 amide): bioactive GLP-1, amino acid sequence SEQ ID NO: 4 (HAEGTFTSDVSSYLEGQAAKEFIAWLVKGR-NH2)",fasting hyperglycaemia,Type 2 diabetic patients,fully normalizes
"GLP-1: gut peptide glucagon-like peptide-1, an incretin hormone (HAEGTFTSDVSSYLEGQAAKEFIAWLVKGR; ends and bridges not checked; UniProt P01275 98-127, looked up)",blood glucose,Type 2 diabetic patients; [3],reduces
same,insulin secretion,Type 2 diabetic patients; [3],stimulates
